According to PubChem BioAssay AID2060892 (Molecular Pharmacology Branch, DTP, NCI, 2025):
pIC50: −log10 of the molar value. Several values for one entry are separate records, joined by “and”; a condition that tells them apart may be missing. Equal entries are not always repeated.

Tested on: HOP-62 complex spheroids with HUVEC/MSC, viability
Assay: Anticancer human tumor HOP-62 cell line growth inhibition [RAS];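 note: spheroids exposed to agents for seven days before readout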;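 for viability, T/C: 100% = DMSO vehicle control viability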
Settings: for pIC50: curve of first compound; for viability, T/C: stronger effect = lower value
Method in brief: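 Multi-cell-type spheroids: tumor cells plus HUVEC endothelial cells and mesenchymal stem cells. RAS-pathway inhibitors were combined with targeted agents, each dosed in half-log steps down from clinical Cmax, or from 10 microM when Cmax was unknown.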

[1] = second compound 0.000949 µM, first compound 0.00316 µM
[2] = second compound 0.000949 µM, first compound 0.01 µM
[3] = second compound 0.000949 µM, first compound 0.0316 µM
[4] = second compound 0.000949 µM, first compound 0.1 µM
[5] = second compound 0.000949 µM, first compound 0.316 µM
[6] = second compound 0.000949 µM, first compound 1 µM
[7] = second compound 0.003 µM, first compound 0.00316 µM
[8] = second compound 0.003 µM, first compound 0.01 µM
[9] = second compound 0.003 µM, first compound 0.0316 µM
[10] = second compound 0.003 µM, first compound 0.1 µM
[11] = second compound 0.003 µM, first compound 0.316 µM
[12] = second compound 0.003 µM, first compound 1 µM
[13] = second compound 0.00949 µM, first compound 0.00316 µM
[14] = second compound 0.00949 µM, first compound 0.01 µM
[15] = second compound 0.00949 µM, first compound 0.0316 µM
[16] = second compound 0.00949 µM, first compound 0.1 µM
[17] = second compound 0.00949 µM, first compound 0.316 µM
[18] = second compound 0.00949 µM, first compound 1 µM
[19] = second compound 0.03 µM, first compound 0.00316 µM
[20] = second compound 0.03 µM, first compound 0.01 µM
[21] = second compound 0.03 µM, first compound 0.0316 µM
[22] = second compound 0.03 µM, first compound 0.1 µM
[23] = second compound 0.03 µM, first compound 0.316 µM
[24] = second compound 0.03 µM, first compound 1 µM
[25] = second compound 0.0949 µM, first compound 0.00316 µM
[26] = second compound 0.0949 µM, first compound 0.01 µM
[27] = second compound 0.0949 µM, first compound 0.0316 µM
[28] = second compound 0.0949 µM, first compound 0.1 µM
[29] = second compound 0.0949 µM, first compound 0.316 µM
[30] = second compound 0.0949 µM, first compound 1 µM
[31] = second compound 0.3 µM, first compound 0.00316 µM
[32] = second compound 0.3 µM, first compound 0.01 µM
[33] = second compound 0.3 µM, first compound 0.0316 µM
[34] = second compound 0.3 µM, first compound 0.1 µM
[35] = second compound 0.3 µM, first compound 0.316 µM
[36] = second compound 0.3 µM, first compound 1 µM

O=C(c1ccc(F)c(F)c1Nc1ccc(I)cc1F)N1CC(O)([C@@H]2CCCCN2)C1 + CCn1c(-c2cc(N3CCN(C)CC3)cnc2C(C)OC)c2c3cc(ccc31)-c1csc(n1)CC(NC(=O)C1CC1C)C(=O)N1CCCC(N1)C(=O)OCC(C)(C)C2
pIC50 (second compound 0.000949 µM): 6.50 | pIC50 (second compound 0.003 µM): 6.95 | pIC50 (second compound 0.00949 µM): 7.25 | pIC50 (second compound 0.03 µM): > 8.50 | pIC50 (second compound 0.0949 µM): > 8.50 | pIC50 (second compound 0.3 µM): > 8.50 | viability, T/C [1]: 119% | viability, T/C [2]: 113% | viability, T/C [3]: 78.7% | viability, T/C [4]: 75.9% | viability, T/C [5]: 51.2% | viability, T/C [6]: 27% | viability, T/C [7]: 86.3% | viability, T/C [8]: 73.3% | viability, T/C [9]: 56.9% | viability, T/C [10]: 56.5% | viability, T/C [11]: 39.3% | viability, T/C [12]: 37.3% | viability, T/C [13]: 65.5% | viability, T/C [14]: 52% | viability, T/C [15]: 67.8% | viability, T/C [16]: 38.5% | viability, T/C [17]: 28.5% | viability, T/C [18]: 30.9% | viability, T/C [19]: 49.9% | viability, T/C [20]: 45.9% | viability, T/C [21]: 33.1% | viability, T/C [22]: 32.2% | viability, T/C [23]: 29.2% | viability, T/C [24]: 37.3% | viability, T/C [25]: 36.7% | viability, T/C [26]: 35.3% | viability, T/C [27]: 32.9% | viability, T/C [28]: 41.7% | viability, T/C [29]: 32.8% | viability, T/C [30]: 37.5% | viability, T/C [31]: 37% | viability, T/C [32]: 39.1% | viability, T/C [33]: 37% | viability, T/C [34]: 38.7% | viability, T/C [35]: 32.9% | viability, T/C [36]: 38.3%

O=C(c1ccc(F)c(F)c1Nc1ccc(I)cc1F)N1CC(O)([C@@H]2CCCCN2)C1 + CCn1c(-c2cccnc2C(C)OC)c2c3cc(ccc31)N1CCOC(CC(NC(=O)C(C(C)C)N(C)C(=O)C3(F)CCN(C(=O)C#CC(C)(C)N(C)C)CC3)C(=O)N3CCCC(N3)C(=O)OCC(C)(C)C2)C1
pIC50 (second compound 0.000949 µM): 6.42 | pIC50 (second compound 0.003 µM): 6.06 | pIC50 (second compound 0.00949 µM): 6.78 | pIC50 (second compound 0.03 µM): 6.87 | pIC50 (second compound 0.0949 µM): 6.94 | pIC50 (second compound 0.3 µM): 7.15 | viability, T/C [1]: 107% | viability, T/C [2]: 123% | viability, T/C [3]: 82% | viability, T/C [4]: 87.2% | viability, T/C [5]: 52.4% | viability, T/C [6]: 25.6% | viability, T/C [7]: 106% | viability, T/C [8]: 93.9% | viability, T/C [9]: 90.3% | viability, T/C [10]: 110% | viability, T/C [11]: 74.9% | viability, T/C [12]: 46.9% | viability, T/C [13]: 85.6% | viability, T/C [14]: 75.6% | viability, T/C [15]: 78.3% | viability, T/C [16]: 60.6% | viability, T/C [17]: 36.7% | viability, T/C [18]: 30.9% | viability, T/C [19]: 88.8% | viability, T/C [20]: 85.8% | viability, T/C [21]: 71.8% | viability, T/C [22]: 60.9% | viability, T/C [23]: 28.4% | viability, T/C [24]: 32.6% | viability, T/C [25]: 87.6% | viability, T/C [26]: 78.2% | viability, T/C [27]: 72.2% | viability, T/C [28]: 55.8% | viability, T/C [29]: 27.1% | viability, T/C [30]: 26.6% | viability, T/C [31]: 82.9% | viability, T/C [32]: 70% | viability, T/C [33]: 67.3% | viability, T/C [34]: 42.4% | viability, T/C [35]: 31.4% | viability, T/C [36]: 26.1%

CC(C)n1nc(-c2ccc3oc(N)nc3c2)c2c(N)ncnc21
viability, T/C (compound 0.000316 µM): 105% [middle of 4 runs] | viability, T/C (compound 0.001 µM): 97.4% [middle of 4 runs] | viability, T/C (compound 0.00316 µM): 93.7% [middle of 4 runs] | viability, T/C (compound 0.01 µM): 98.7% and 65.8% and 66.1%

CCc1c2c(nc3ccc(O)cc13)-c1cc3c(c(=O)n1C2)COC(=O)[C@]3(O)CC
viability, T/C (compound 0.003 µM): 22.4% [middle of 4 runs] | viability, T/C (compound 0.00949 µM): 10.6% [middle of 4 runs] | viability, T/C (compound 0.03 µM): 7.82% [middle of 4 runs] | viability, T/C (compound 0.0949 µM): 5.87% [middle of 4 runs] | viability, T/C (compound 0.3 µM): 3.8% [middle of 4 runs] | IC50 (curve of compound): 1.34 nM [middle of 4 runs]

CC1(C)CCC(Nc2ncc(C(F)(F)F)c(-c3c[nH]c4c(P(C)(C)=O)c(C#N)ccc34)n2)CN1 (stereo unspecified) + C=CC(=O)N1CCN(c2nc(OCC3CCCN3C)nc3c(F)c(-c4nc(N)cc(C)c4C(F)(F)F)c(Cl)cc23)C(C)C1
pIC50 (second compound 0.00316 µM): > 9.02 | pIC50 (second compound 0.01 µM): 9.01 | pIC50 (second compound 0.0316 µM): > 9.02 | pIC50 (second compound 0.1 µM): > 9.02 | pIC50 (second compound 0.316 µM): > 9.02 | pIC50 (second compound 1 µM): 9.02 | viability, T/C (second compound 0.00316 µM, first compound 0.000949 µM): 49.6% | viability, T/C (second compound 0.00316 µM, first compound 0.003 µM): 25% | viability, T/C (second compound 0.00316 µM, first compound 0.00949 µM): 19.8% | viability, T/C (second compound 0.00316 µM, first compound 0.03 µM): 15.8% | viability, T/C (second compound 0.00316 µM, first compound 0.0949 µM): 20.4% | viability, T/C (second compound 0.00316 µM, first compound 0.3 µM): 21.5% | viability, T/C (second compound 0.01 µM, first compound 0.000949 µM): 50.7% | viability, T/C (second compound 0.01 µM, first compound 0.003 µM): 24% | viability, T/C (second compound 0.01 µM, first compound 0.00949 µM): 20.3% | viability, T/C (second compound 0.01 µM, first compound 0.03 µM): 16.4% | viability, T/C (second compound 0.01 µM, first compound 0.0949 µM): 20% | viability, T/C (second compound 0.01 µM, first compound 0.3 µM): 19.8% | viability, T/C (second compound 0.0316 µM, first compound 0.000949 µM): 45.2% | viability, T/C (second compound 0.0316 µM, first compound 0.003 µM): 23.8% | viability, T/C (second compound 0.0316 µM, first compound 0.00949 µM): 19.6% | viability, T/C (second compound 0.0316 µM, first compound 0.03 µM): 15.4% | viability, T/C (second compound 0.0316 µM, first compound 0.0949 µM): 20.8% | viability, T/C (second compound 0.0316 µM, first compound 0.3 µM): 22.5% | viability, T/C (second compound 0.1 µM, first compound 0.000949 µM): 45.1% | viability, T/C (second compound 0.1 µM, first compound 0.003 µM): 22.6% | viability, T/C (second compound 0.1 µM, first compound 0.00949 µM): 21.2% | viability, T/C (second compound 0.1 µM, first compound 0.03 µM): 17.5% | viability, T/C (second compound 0.1 µM, first compound 0.0949 µM): 16% | viability, T/C (second compound 0.1 µM, first compound 0.3 µM): 20% | viability, T/C (second compound 0.316 µM, first compound 0.000949 µM): 48.8% | viability, T/C (second compound 0.316 µM, first compound 0.003 µM): 25.8% | viability, T/C (second compound 0.316 µM, first compound 0.00949 µM): 19.7% | viability, T/C (second compound 0.316 µM, first compound 0.03 µM): 16.8% | viability, T/C (second compound 0.316 µM, first compound 0.0949 µM): 21.2% | viability, T/C (second compound 0.316 µM, first compound 0.3 µM): 22.7% | viability, T/C (second compound 1 µM, first compound 0.000949 µM): 50.3% | viability, T/C (second compound 1 µM, first compound 0.003 µM): 20.7% | viability, T/C (second compound 1 µM, first compound 0.00949 µM): 18.4% | viability, T/C (second compound 1 µM, first compound 0.03 µM): 19.6% | viability, T/C (second compound 1 µM, first compound 0.0949 µM): 17.6% | viability, T/C (second compound 1 µM, first compound 0.3 µM): 19.1%
